Assay results reported in ChEMBL document CHEMBL1201862, “PubChem BioAssay data set” (2004).
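Step 1: Grow cells in 96-well plates. Step 2: Expose to compound for 48 hours at 5 concentrations. Step 3: Interpolate endpoints linearly; if unreached, use highest concentration. GI50 marks 50% less growth.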 The source made the active and inactive calls. Rule as the data show it: active = GI50 up to about 1.1 µM and inactive = higher.

Columns and labels:
Test in all cases: NCI-60 cell line screen, 48 h
IGROV-1 = tested on: IGROV-1
OVCAR-4 = tested on: OVCAR-4
SW-620 = tested on: SW-620
OVCAR-8 = tested on: OVCAR-8
SN12C = tested on: SN12C
UACC-62 = tested on: UACC-62
HCT-15 = tested on: HCT-15
HT-29 = tested on: HT-29
SK-MEL-2 = tested on: SK-MEL-2
SNB-19 = tested on: SNB-19
RPMI-8226 = tested on: RPMI-8226
CAKI-1 = tested on: CAKI-1
KM12 = tested on: KM12
SF-295 = tested on: SF-295
NCI-H226 = tested on: NCI-H226
UACC-257 = tested on: UACC-257
OVCAR-5 = tested on: OVCAR-5
SK-OV-3 = tested on: SK-OV-3
TK-10 = tested on: TK-10

Structure (SMILES) | GI50 (IGROV-1) | GI50 (OVCAR-4) | GI50 (SW-620) | GI50 (OVCAR-8) | GI50 (SN12C) | GI50 (UACC-62) | GI50 (HCT-15) [µM] | GI50 (HT-29) | GI50 (SK-MEL-2) | GI50 (SNB-19) | GI50 (RPMI-8226) | GI50 (CAKI-1) | GI50 (KM12) | GI50 (SF-295) | GI50 (NCI-H226) | GI50 (UACC-257) | GI50 (OVCAR-5) | GI50 (SK-OV-3) | GI50 (TK-10)
CN(C)C(=O)N(CCCl)N=O | > 100 µM (inactive) | > 100 µM (inactive) | > 100 µM (inactive) | > 100 µM (inactive) | > 100 µM (inactive) | > 100 µM (inactive) | > 100 | > 100 µM (inactive) | > 100 µM (inactive) | > 100 µM (inactive) | > 100 µM (inactive) | > 100 µM (inactive) | > 100 µM (inactive) | > 100 µM (inactive) | > 10 µM (inactive) | > 100 µM (inactive) | > 100 µM (inactive) | > 100 µM (inactive) | –
O=C(CC1(O)C(=O)Nc2ccc(Br)cc21)c1cccc([N+](=O)[O-])c1 (centres undefined) | – | 23.1 µM (inactive) | 37.8 µM (inactive) | 35.5 µM (inactive) | > 100 µM (inactive) | – | 56 | 32.7 µM (inactive) | 54.7 µM (inactive) | 61.5 µM (inactive) | 18.3 µM (inactive) | 40.9 µM (inactive) | 42.6 µM (inactive) | 59 µM (inactive) | 26.9 µM (inactive) | 27.9 µM (inactive) | > 100 µM (inactive) | > 100 µM (inactive) | > 100 µM (inactive)
O=c1ccc(=O)c2c(=O)c3ccccc3c(=O)c1=2 | > 100 µM (inactive) | 61 µM (inactive) | 32.7 µM (inactive) | 27.5 µM (inactive) | 38.5 µM (inactive) | 36.7 µM (inactive) | 46.2 | – | 20.8 µM (inactive) | 41.3 µM (inactive) | 27.5 µM (inactive) | 50 µM (inactive) | 37.1 µM (inactive) | 34.4 µM (inactive) | – | 30.8 µM (inactive) | > 100 µM (inactive) | > 100 µM (inactive) | > 100 µM (inactive)
CN1c2ccccc2N(C)C23N(C)c4ccccc4N(C)C12N(C)c1ccccc1N3C (centres undefined) | > 100 µM (inactive) | – | > 100 µM (inactive) | > 100 µM (inactive) | > 100 µM (inactive) | > 100 µM (inactive) | > 100 | > 100 µM (inactive) | > 100 µM (inactive) | > 100 µM (inactive) | – | > 100 µM (inactive) | > 100 µM (inactive) | > 100 µM (inactive) | > 100 µM (inactive) | > 100 µM (inactive) | > 100 µM (inactive) | – | > 100 µM (inactive)
O=S1(=O)C(=C(c2ccccc2)c2ccccc2)S(=O)(=O)c2ccccc21 | > 95.5 µM (inactive) | 83.6 µM (inactive) | > 100 µM (inactive) | > 100 µM (inactive) | > 100 µM (inactive) | > 72.1 µM (inactive) | > 100 | > 100 µM (inactive) | > 100 µM (inactive) | > 58.1 µM (inactive) | > 100 µM (inactive) | > 87.5 µM (inactive) | > 100 µM (inactive) | 33.8 µM (inactive) | > 60.3 µM (inactive) | > 100 µM (inactive) | > 100 µM (inactive) | > 56.5 µM (inactive) | –
NC1c2c(Br)sc(N3CCCC3)c2C(=O)C1O (centres undefined) | > 50 µM (inactive) | > 50 µM (inactive) | > 50 µM (inactive) | > 50 µM (inactive) | > 50 µM (inactive) | > 50 µM (inactive) | > 50 | > 50 µM (inactive) | > 50 µM (inactive) | > 50 µM (inactive) | – | > 50 µM (inactive) | > 50 µM (inactive) | > 50 µM (inactive) | > 50 µM (inactive) | > 50 µM (inactive) | > 50 µM (inactive) | > 50 µM (inactive) | > 50 µM (inactive)
